Experimental data reported in US20250282895A1, “PHARMACEUTICAL COMPOSITIONS OF CHEMOTHERAPEUTIC AGENTS BASED ON BETA-S[…]-AMINO ACID DERIVATIVES” (priority 2021, published 2025).
Counter-ions that a name gives are not always drawn.

Experiment: Comparative stability, Formulation 2 (based on Alkeran)
Assay type: physicochemical
Conditions: Formulation 2, 25° C.
Method: The stability of Compound (1c) either as the HCl salt or as the free base was compared to the stability of melphalan HCl and/or bendamustine HCl in various pharmaceutical formulations and at different concentrations and at temperatures of 0° C. or 25° C.
The stability of the compounds in the pharmaceutical formulations was determined at concentrations within the range from 0.4 mg/mL to 0.5 mg/mL, from 0.9 mg/mL to 1.1 mg/mL, and from 1.8 mg/mL to 2.1 mg/mL.
The amount of the active pharmaceutical ingredient (API) (Compound (1c), melphalan or bendamustine) in the pharmaceutical formulations at different times during storage was determined using HPLC/UV as described in detail for Example 4 and Example 5.
Alkeran® is an injectable formulation of melphalan-HCl approved by the FDA. Alkeran® for injection is supplied as a sterile, nonpyrogenic, freeze-dried powder. Each vial contains melphalan hydrochloride equivalent to 50 mg melphalan and 20 mg povidone (polyvinylpyrrolidinone, PVP). The solid powder is recons trued in a sterile diluent containing 0.2 g of sodium citrate, 6.0 mL of propylene glycol, and 0.52 mL of ethanol (96%) and Water for Injection for a total of 10 mL. This provides a nominal 5 mg/mL solution of melphalan (admixture). The dose to be administered is immediately diluted in 0.9% sodium chloride injection, USP, to a concentration not greater than 0.45 mg/mL. Alkeran® for injection is administered intravenously.
A stock solution was prepared by dissolving 68.8 mg (0.206 mmol) of Compound (1c) (free base) and 25.0 mg of Plasdone® C-12 (Povidone; Ashland, 830796) in about 20.0 mL of a mixture of acetonitrile/water (1:1, v/v) with vortexing in clean graduated glass cylinder (25 mL). A solution of 0.407 mL of 0.5072 M aq. HCl (0.206 mmol, 1.0 eq.; Fluka, 318957) was added with gentle vortexing, and the resulting clear solution was further diluted to 25.0 mL with a mixture of acetonitrile/water (1:1, v/v) with gentle vortexing to afford a stock solution of Compound (1c) as a mono-HCl salt of a concentration 2.75 mg/mL and a Plasdone® concentration of 1.0 mg/mL. This solution was filtered through a 0.45 μm nylon syringe filter into a clean 50 mL Erlenmeyer flask. Aliquots of 2.0 mL (2× 1.0 mL; 2× 2.75 mg) of this stock solution were rapidly pipetted into clean 12 mL scintillation vials. The aliquots were frozen at −78° C. (dry ice/acetone bath) and lyophilized at about 100 mTorr for about 16 hours to provide test vials each containing 6.1 mg (0.0165 mmol) of Compound (1c) mono-hydrochloride salt (mono-HCl salt) (corresponding to 5.5 mg of Compound (1c), free base, as a colorless powdery solid.
A stock solution was prepared by dissolving 62.5 mg (0.205 mmol) of melphalan (free base; SigmaAldrich, M2011) and 25.0 mg of Plasdone® C-12 (Povidone; Ashland, 830796) in about 20.0 mL of a mixture of acetonitrile/water (1:1, v/v) with vortexing in clean graduated glass cylinder (25 mL). A solution of 0.404 mL of 0.5072 M aq. HCl (0.205 mmol, 1.0 eq.; Fluka, 318957) was added with gentle vortexing, and the resulting clear solution was further diluted to 25.0 mL with a mixture of acetonitrile/water (1:1, v/v) with gentle vortexing to afford a stock solution of melphalan as a mono-HCl salt of a concentration 2.50 mg/mL and a Plasdone® concentration of 1.0 mg/mL. This solution was filtered through a 0.45 μm nylon syringe filter into a clean 50 mL Erlenmeyer flask. Aliquots of 2.0 mL (2× 1.0 mL; 2×2.50 mg) of this stock solution were rapidly pipetted into clean 12 mL scintillation vials. The aliquots were frozen at −78° C. (dry ice/acetone bath) and lyophilized at about 100 mTorr for about 16 hours to provide test vials each containing 5.6 mg (0.0164 mmol) of melphalan mono-hydrochloride salt (mono-HCl salt) (corresponding to 5.0 mg of melphalan as a free base) as a colorless powdery solid. […]

[1] = pH 5.5-5.8, 0.5 hours, 0.4-0.5 mg/mL
[2] = pH 5.5-5.8, 0.5 hours, 0.9-1.1 mg/mL
[3] = pH 5.5-5.8, 0.5 hours, 1.8-2.1 mg/mL
[4] = pH 5.5-5.8, 2.0 hours, 0.4-0.5 mg/mL
[5] = pH 5.5-5.8, 2.0 hours, 0.9-1.1 mg/mL
[6] = pH 5.5-5.8, 2.0 hours, 1.8-2.1 mg/mL

Row | SMILES | % API [1] [%] | % API [2] [%] | % API [3] [%] | % API [4] [%] | % API [5] [%] | % API [6] [%]
1 | Cc1ccc(N(CCCl)CCCl)cc1C[C@H](N)CC(=O)O [Compound (1c)•HCl, (S)-3-amino-4-(5-(bis(2-chloroethyl)amino)-2-methylphenyl) butanoic acid mono hydrochloride salt] | 91 | 89 | 89 | 72 | 60 | 62
2 | Cl.N[C@@H](Cc1ccc(N(CCCl)CCCl)cc1)C(=O)O [Melphalan•HCl, 4-[bis(2-chloroethyl)amino]-L-phenylalanine hydrochloride, reference compound] | 95 | 91 | 91 | 84 | 71 | 75
